ChEMBL document CHEMBL5154827, “Discovery of S-217622, a Noncovalent Oral SARS-CoV-2 3CL Protease Inhibitor Clinical Candidate for Treating COVID-19” (J Med Chem, 2022)

Key:
Chymotrypsin [1] = target: T1, Chymotrypsin (Homo sapiens, UniProt Q99895+P17538+P40313+Q6GPI1); test: Inhibition of human pancreas chymotrypsin using Suc-Ala-Ala-Pro-Phe-AMC as substrate preincubated for 15 mins incubated followed by addition of substrate measured after 60 mins by measuring amount of AMC formed by spectrofluorimetric method; type: protein assay
[2] = Antiviral activity against HCoV-OC43 infected in MRC5 cells assessed as inhibition of viral cytopathic effect measured after 42 hrs by real-time PCR method; type: functional, cell-based, Human coronavirus OC43; details: Betacoronavirus 1, OC43, MRC5, 42 h
NIH3T3 = test: Phototoxicity in BALB/c mouse 3T3 fibroblast incubated for 1 hr by measuring neutral-red extraction from cells; type: toxicity, cell-based; details: nih3t3, 1 h
[3] = target: Human immunodeficiency virus type 1 protease (Human immunodeficiency virus 1) (UniProt Q72874); test: Inhibition of HIV-1 protease at 100 uM
Chymotrypsin [4] = target: T1, Chymotrypsin; test: Inhibition of human pancreas chymotrypsin at 100 uM using Suc-Ala-Ala-Pro-Phe-AMC as substrate preincubated for 15 mins incubated followed by addition of substrate measured after 60 mins by measuring amount of AMC formed by spectrofluorimetric method; type: protein assay; details: time 75.0 min
[5] = Elimination half life in Sprague-Dawley rat at 0.5 micromol/mL/kg, iv measured for 3 to 360 mins by LC-MS/MS analysis; type: ADME, organism-based; details: in vivo, time 3-360 min, dose 0.5 µmol/kg, read-out: LambdaZ (converted)

Structure (SMILES) | IC50 (Chymotrypsin [1]) [µM] | EC50 [2] [µM] | Activity (NIH3T3) | inhibition [3] [%] | inhibition (Chymotrypsin [4]) [%] | half-life [5] [h]
Cn1cnc(Cn2c(=O)[nH]/c(=N\c3cc4cn(C)nc4cc3Cl)n(Cc3cc(F)c(F)cc3F)c2=O)n1 | > 100 | 0.074 | Non-Toxic | < 50 | < 50 | 
CNC(=O)Cn1c(=O)[nH]/c(=N\c2ccc(OC(F)F)cc2C)n(Cc2cc(F)c(F)c(F)c2)c1=O |  |  |  |  |  | 2.1
CNC(=O)Cn1c(=O)[nH]/c(=N\c2cc3cn(C)nc3cc2Cl)n(Cc2cc(F)c(F)c(F)c2)c1=O |  |  |  |  |  | 1.3
